Source: patent US20010035503A1, “Method and apparatus for non-invasive detection of angiogenic and anti-angiogenic activity in living tissue” (priority 2000, published 2001)

How the values were obtained:
[1] = tested on: C3H murine mammary carcinoma; assay: anti-vascular effects by combined LDF and NIRS measurements in mice with tumor transplants; type: in vivo; settings: for LDF: difference between post- and pre-treatment as percent of pre-treatment value; for LDF / NIRS* / pO2 after treatment % < 5 mm Hg: median, N = 3; for LDF / NIRS* / pO2 after treatment median / pO2 after treatment % < 5 mm Hg: i.p.: FAA 150, CA4B 250, DMX-AA 20, HDZ 5 mg/kg; for tumor blood perfusion estimated by LDF / hemoglobin concentration: in words; for hemoglobin concentration: from NIRS; for NIRS*: reflectance (1/absorbance), increase = decrease in hemoglobin concentration, post- minus pre-treatment as percent of pre-treatment; for pO2 after treatment median: tumor pO2, N = 3; for pO2 after treatment % < 5 mm Hg: tumor pO2 values below 5 mm Hg
Experimental: Anti-vascular effects on C3H murine mammary carcinoma were determined by combined LDF and NIRS measurements, in mice with tumor transplants using the apparatus shown in FIG. 9.
The three agents DMX-AA, FAA and CA4B are antivascular agents, which by various mechanisms cause collapse of tumor vasculature and consequently a decrease in tumor blood flow and oxygenation. Hydralazine (HDZ) is a well known anti-hypertensive agent that causes peripheral vasodilatation, i.e. a drop in vascular flow resistance leading to an acute decrease in tumor perfusion (a.k.a. the “steal effect”), because of the lack of autoregulation of tumor vessels. Numbers in the table represent differences between post-and pre-treatment measurements expressed as percent of the pre-treatment value. Number of experiments per drug=3.

[2] = tested on: angiogenic response; assay: angiogenic response to bFGF slow release pellet implanted under the skin, LDF and NIRS recordings; type: in vivo, mouse; settings: pellet with 100 micrograms bFGF vs placebo pellets, p<0.05 vs placebo, p<0.001 vs controls
Experimental: (§1) The apparatus as shown on FIG. 9 was tested in a mouse model with a controlled angiogenic response induced by local application of an angiogenic agent, basic fibroblast growth factor (bFGF). Parallel experiments were performed with identical setup in order to correlate the sensitivity of near infrared spectroscopy (NIRS) compared to laser doppler flowmetry (LDF) for estimation of angiogenic and anti-angiogenic responses.
(§2) A slow release pellet (Innovative Res.) containing 100 micrograms of bFGF released at a constant rate over 10 days was implanted under the skin at three different locations in the mouse. The angiogenic response to the active substance was evaluated in comparison with placebo pellets. […] Median values and interquartile range is shown.

[3] = tested on: bFGF induced angiogenic response; assay: anti-angiogenic activity in bFGF stimulated animals, LDF and NIRS recordings; type: in vivo, mouse
Experimental: as §1, §2
The ability to detect anti-angiogenic properties of therapeutic agents in these preparations was tested in the same technical settings by comparing treated versus untreated animals.
FIGS. 3A and 3B show the anti-angiogenic activity after treatment with TNP-470 (7 mg/kg q.d.x7, n=13). […] LDF recordings were performed on day 6, whereas NIRS recordings were performed on day 7 after implantation. Median values and interquartile range is shown.

[4] = tested on: U87 and MLL tumor lines; assay: tumor growth, NIRS recordings and Chalkley counts during continuous anti-angiogenic treatment; type: in vivo, nude mice
Excerpt: The relationship between non-invasive measures of tumor hemoglobin concentration by NIRS and estimates of vessel density by Chalkley counts was examined in seven tumor lines (gliomas: U87, U118, U373; Small Cell Lung Cancer (SCLC): 54A, 54B, DMS79; rat prostate cancer: MLL) on the hind leg of nude mice. Chalkley counts were obtained from CD31 immunostained cryosections. The NIRS absorbance increased with the tumor size until a tumor line specific plateau was reached from tumor sizes of 100-150 mm^3.
We also evaluated the correlation between tumor size and NIRS recordings during untreated growth for all seven tumor lines, and during continuous anti-angiogenic treatment with TNP-470 for two tumor lines, U87 and MLL.

[5] = treated vs untreated tumors of similar size, U87 and MLL

Compound | LDF [1] [%] | tumor blood perfusion estimated by LDF [1] | hemoglobin concentration [1] | NIRS* [1] | pO2 after treatment median [1] | pO2 after treatment % < 5 mm Hg [1] [%] | other results
O=C(O)Cc1cccc2c(=O)cc(-c3ccccc3)oc12 [FAA] | −34 | decrease in perfusion | unchanged hemoglobin concentration | +6% | 1.5 | 69 | –
NNc1nncc2ccccc12 [HDZ, Hydralazine] | −93 | – | – | +36% | 1.9 | 85 | –
Cc1ccc2c(=O)c3cccc(CC(=O)O)c3oc2c1C [DMX-AA] | −74 | decrease in perfusion | unchanged hemoglobin concentration | +1% | 2.8 | 66 | –
basic fibroblast growth factor [bFGF] | – | – | – | – | – | – | LDF recordings ([2]; day 6 after implantation): significantly higher than placebo; NIRS recordings ([2]; day 7 after implantation): significantly higher than placebo
CO[C@@H]1[C@H](OC(=O)NC(=O)CCl)CC[C@]2(CO2)[C@H]1[C@@]1(C)O[C@@H]1CC=C(C)C [TNP-470] | – | – | – | – | – | – | LDF recordings ([3]; compared to untreated bFGF stimulated animals, day 6, TNP-470 7 mg/kg q.d.x7 (p<0.05), dexamethasone 10 mg/kg q.d.x7 (p<0.001)): significantly lower; NIRS recordings ([3]; compared to untreated bFGF stimulated animals, day 7, TNP-470 7 mg/kg q.d.x7 (p<0.05), dexamethasone 10 mg/kg q.d.x7 (p<0.001)): significantly lower; anti-angiogenic activity ([3]; treated versus untreated animals): Significant anti-angiogenic activity; onset of tumor growth and the growth rate ([4]; continuous treatment, U87 and MLL tumors): significantly retarded; Chalkley counts [4, 5]: significantly lower; final NIRS recordings [4, 5]: significantly lower
